In patent US7118895B2, “Process for producing aglycon by using diglycosidase and flavor-improved food containing the aglycon and converting agent to be used in the process” (Amano Enzyme Inc., priority 2000, dated 2006):

Tested on: Crude diglycosidase
Assay: Examination of pH in the conversion into isoflavone aglycons by diglycosidase using soybean materials
Type: biochemical, Penicillium multicolor IAM7153
Set-up: Decomposition efficiency of genistin family in soymilk / Decomposition efficiency of genistin family in defatted soybean / Decomposition efficiency of daidzin family in defatted soybean: concentration or dose not given beside the values
Details: for Decomposition efficiency of genistin family in roasted soy flour: 55° C.
Experimental: A substrate solution of 450 μL was prepared by suspending 50 mg of each soybean material (roasted soy flour (manufactured by Fuji Shokuryo K.K.), soymilk (manufactured by Gitoh Shokuhin K.K.), defatted soybean (manufactured by Fuji Seiyu K.K.), concentrated soybean protein (manufactured by Fuji Seiyu K.K.)), and adjusting the pH to 2 to 11 with hydrochloric acid or sodium hydroxide. Each enzyme solution of pH 2–11 wherein diglycosidase activity of crude diglycosidase was adjusted to 1.88 AU/mL was added thereto in an amount of 50 μL and the whole was reacted at 55° C. at the total volume of 500 μL. To the reaction mixture was added 700 μL of ethanol after 0, 1, 3, and 6 hours of the reaction. After stirring and ultrasonication, the mixture was subjected to centrifugal separation at 15,000 rpm and 4° C. for 10 minutes. The supernatant was filtered through a filter and the existence of isoflavone glycosides and aglycon isoflavones contained in the reaction mixture was detected by HLPC (Tables 15 to 26).

[1] = pH6.6, heat treatment of enzyme: no, reaction time 0 h
[2] = pH6.6, heat treatment of enzyme: no, reaction time 1 h
[3] = pH6.6, heat treatment of enzyme: no, reaction time 3 h
[4] = pH6.6, heat treatment of enzyme: no, reaction time 6 h
[5] = pH6.6, heat treatment of enzyme: yes, reaction time 6 h

Q: With `O=c1c(-c2ccc(O)cc2)coc2cc(O[C@@H]3O[C@H](CO)[C@@H](O)[C@H](O)[C@H]3O)cc(O)c12` [genistin] as the molecule, how does the “Decomposition efficiency of genistin family in roasted soy flour” value (pH5, heat treatment of enzyme no, reaction time 0 h) read?
A: The value was 49.9.

Q: What about the “Decomposition efficiency of genistin family in roasted soy flour” value (pH5, heat treatment of enzyme no, reaction time 1 h) of the same molecule?
A: Its value is “not detected”.

Q: And the “Decomposition efficiency of genistin family in roasted soy flour” value (pH5, heat treatment of enzyme no, reaction time 3 h)?
A: The value was “not detected”.

Q: And the “Decomposition efficiency of genistin family in roasted soy flour” value (pH5, heat treatment of enzyme no, reaction time 6 h)?
A: Its value is “not detected”.

Q: And the “Decomposition efficiency of genistin family in roasted soy flour” value (pH5, heat treatment of enzyme yes, reaction time 6 h)?
A: Its value is 52.6.

Q: What about the “Decomposition efficiency of genistin family in concentrated soybean protein” value (pH5.1, heat treatment of enzyme: no, reaction time 0 h) of the same molecule?
A: Its value is 50.7%.

Q: What about the “Decomposition efficiency of genistin family in concentrated soybean protein” value (pH5.1, heat treatment of enzyme: no, reaction time 1 h) of the same molecule?
A: The value was “not detected”.

Q: What about the “Decomposition efficiency of genistin family in concentrated soybean protein” value (pH5.1, heat treatment of enzyme: no, reaction time 3 h) of the same molecule?
A: The value was “not detected”.

Q: And the “Decomposition efficiency of genistin family in concentrated soybean protein” value (pH5.1, heat treatment of enzyme: no, reaction time 6 h)?
A: Its value is “not detected”.

Q: What about the “Decomposition efficiency of genistin family in concentrated soybean protein” value (pH5.1, heat treatment of enzyme: yes, reaction time 6 h) of the same molecule?
A: Its value is 51.4%.

Q: What about the “Decomposition efficiency of genistin family in defatted soybean” value (pH5.4, heat treatment of enzyme: no, reaction time 0 h) of the same molecule?
A: The value was 40.5%.

Q: What about the “Decomposition efficiency of genistin family in defatted soybean” value (pH5.4, heat treatment of enzyme: no, reaction time 1 h) of the same molecule?
A: The value was “not detected”.

Q: And the “Decomposition efficiency of genistin family in defatted soybean” value (pH5.4, heat treatment of enzyme: no, reaction time 3 h)?
A: The value was “not detected”.

Q: What about the “Decomposition efficiency of genistin family in defatted soybean” value (pH5.4, heat treatment of enzyme: no, reaction time 6 h) of the same molecule?
A: The value was “not detected”.

Q: What about the “Decomposition efficiency of genistin family in defatted soybean” value (pH5.4, heat treatment of enzyme: yes, reaction time 6 h) of the same molecule?
A: Its value is 6.2%.

Q: And the “Decomposition efficiency of genistin family in soymilk” value (“Decomposition efficiency … in soymilk” for short) (pH6.2, heat treatment of enzyme: no, reaction time 0 h)?
A: Its value is 31.7%.

Q: And the “Decomposition efficiency … in soymilk” value (pH6.2, heat treatment of enzyme: no, reaction time 1 h)?
A: Its value is “not detected”.

Q: And the “Decomposition efficiency … in soymilk” value (pH6.2, heat treatment of enzyme: no, reaction time 3 h)?
A: The value was “not detected”.

Q: And the “Decomposition efficiency … in soymilk” value (pH6.2, heat treatment of enzyme: no, reaction time 6 h)?
A: Its value is “not detected”.

Q: What about the “Decomposition efficiency … in soymilk” value (pH6.2, heat treatment of enzyme: yes, reaction time 6 h) of the same molecule?
A: The value was 38.3%.

Q: What about the “Decomposition efficiency of genistin family in roasted soy flour” value (pH6.5, heat treatment of enzyme no, reaction time 0 h) of the same molecule?
A: The value was 49.4.

Q: What about the “Decomposition efficiency of genistin family in roasted soy flour” value (pH6.5, heat treatment of enzyme no, reaction time 1 h) of the same molecule?
A: The value was “not detected”.

Q: What about the “Decomposition efficiency of genistin family in roasted soy flour” value (pH6.5, heat treatment of enzyme no, reaction time 3 h) of the same molecule?
A: Its value is “not detected”.

Q: And the “Decomposition efficiency of genistin family in roasted soy flour” value (pH6.5, heat treatment of enzyme no, reaction time 6 h)?
A: The value was “not detected”.

Q: What about the “Decomposition efficiency of genistin family in roasted soy flour” value (pH6.5, heat treatment of enzyme yes, reaction time 6 h) of the same molecule?
A: The value was 54.8.

Q: And the “Decomposition efficiency of genistin family in concentrated soybean protein” value [1]?
A: Its value is 50.4%.

Q: And the “Decomposition efficiency of genistin family in defatted soybean” value [1]?
A: The value was 39.2%.

Q: And the “Decomposition efficiency of genistin family in concentrated soybean protein” value [2]?
A: The value was 13.9%.

Q: And the “Decomposition efficiency of genistin family in defatted soybean” value [2]?
A: The value was “not detected”.

Q: What about the “Decomposition efficiency of genistin family in concentrated soybean protein” value [3] of the same molecule?
A: Its value is 3.8%.

Q: And the “Decomposition efficiency of genistin family in defatted soybean” value [3]?
A: Its value is “not detected”.

Q: And the “Decomposition efficiency of genistin family in concentrated soybean protein” value [4]?
A: The value was 1.7%.

Q: And the “Decomposition efficiency of genistin family in defatted soybean” value [4]?
A: The value was “not detected”.

Q: And the “Decomposition efficiency of genistin family in concentrated soybean protein” value [5]?
A: The value was 53.2%.

Q: And the “Decomposition efficiency of genistin family in defatted soybean” value [5]?
A: Its value is 7.7%.

Q: And the “Decomposition efficiency … in soymilk” value (pH7.2, heat treatment of enzyme: no, reaction time 0 h)?
A: The value was 31.2%.

Q: What about the “Decomposition efficiency … in soymilk” value (pH7.2, heat treatment of enzyme: no, reaction time 1 h) of the same molecule?
A: Its value is “not detected”.

Q: And the “Decomposition efficiency … in soymilk” value (pH7.2, heat treatment of enzyme: no, reaction time 3 h)?
A: Its value is “not detected”.

Q: What about the “Decomposition efficiency … in soymilk” value (pH7.2, heat treatment of enzyme: no, reaction time 6 h) of the same molecule?
A: The value was “not detected”.

Q: What about the “Decomposition efficiency … in soymilk” value (pH7.2, heat treatment of enzyme: yes, reaction time 6 h) of the same molecule?
A: The value was 38.9%.

Q: What about the “Decomposition efficiency of genistin family in defatted soybean” value (pH7.8, heat treatment of enzyme: no, reaction time 0 h) of the same molecule?
A: The value was 40.4%.

Q: And the “Decomposition efficiency of genistin family in defatted soybean” value (pH7.8, heat treatment of enzyme: no, reaction time 1 h)?
A: Its value is 15.7%.

Q: What about the “Decomposition efficiency of genistin family in defatted soybean” value (pH7.8, heat treatment of enzyme: no, reaction time 3 h) of the same molecule?
A: The value was 12.3%.

Q: And the “Decomposition efficiency of genistin family in defatted soybean” value (pH7.8, heat treatment of enzyme: no, reaction time 6 h)?
A: Its value is 11.4%.

Q: What about the “Decomposition efficiency of genistin family in defatted soybean” value (pH7.8, heat treatment of enzyme: yes, reaction time 6 h) of the same molecule?
A: Its value is 37.5%.

Q: What about the “Decomposition efficiency of genistin family in roasted soy flour” value (pH8.5, heat treatment of enzyme no, reaction time 0 h) of the same molecule?
A: The value was 55.8.

Q: And the “Decomposition efficiency of genistin family in roasted soy flour” value (pH8.5, heat treatment of enzyme no, reaction time 1 h)?
A: Its value is 28.7.

Q: And the “Decomposition efficiency of genistin family in roasted soy flour” value (pH8.5, heat treatment of enzyme no, reaction time 3 h)?
A: The value was 19.2.

Q: What about the “Decomposition efficiency of genistin family in roasted soy flour” value (pH8.5, heat treatment of enzyme no, reaction time 6 h) of the same molecule?
A: Its value is 14.5.

Q: What about the “Decomposition efficiency of genistin family in roasted soy flour” value (pH8.5, heat treatment of enzyme yes, reaction time 6 h) of the same molecule?
A: Its value is 59.5.

Q: And the “Decomposition efficiency of genistin family in concentrated soybean protein” value (pH8.6, heat treatment of enzyme: no, reaction time 0 h)?
A: The value was 53.8%.

Q: What about the “Decomposition efficiency of genistin family in concentrated soybean protein” value (pH8.6, heat treatment of enzyme: no, reaction time 1 h) of the same molecule?
A: Its value is 50.4%.

Q: And the “Decomposition efficiency of genistin family in concentrated soybean protein” value (pH8.6, heat treatment of enzyme: no, reaction time 3 h)?
A: Its value is 45.1%.

Q: What about the “Decomposition efficiency of genistin family in concentrated soybean protein” value (pH8.6, heat treatment of enzyme: no, reaction time 6 h) of the same molecule?
A: The value was 36.3%.

Q: And the “Decomposition efficiency of genistin family in concentrated soybean protein” value (pH8.6, heat treatment of enzyme: yes, reaction time 6 h)?
A: Its value is 56.2%.

Q: And the “Decomposition efficiency … in soymilk” value (pH11.6, heat treatment of enzyme: no, reaction time 0 h)?
A: The value was 34.8%.

Q: What about the “Decomposition efficiency … in soymilk” value (pH11.6, heat treatment of enzyme: no, reaction time 1 h) of the same molecule?
A: Its value is “not detected”.

Q: What about the “Decomposition efficiency … in soymilk” value (pH11.6, heat treatment of enzyme: no, reaction time 3 h) of the same molecule?
A: The value was “not detected”.

Q: And the “Decomposition efficiency … in soymilk” value (pH11.6, heat treatment of enzyme: no, reaction time 6 h)?
A: The value was “not detected”.

Q: What about the “Decomposition efficiency … in soymilk” value (pH11.6, heat treatment of enzyme: yes, reaction time 6 h) of the same molecule?
A: The value was 41.3%.
